Data from patent US20240327400A1, “COMPOSITIONS AND METHODS FOR MODULATING HAIR GROWTH” (The Regents of the University Of California, priority 2020, published 2024).

Test system: Lactate dehydrogenase (LDH) activity
Assay: LDH activity assay on human skin lysate (Ldh platereader protocol)
Assay type: biochemical
Conditions: human skin lysate pretreated with benzil prior to incubation with MPC inhibitors; FIG. 7
Description: Human skin samples were homogenized with a Benchmark BeadBlaster24R in 500 μl of Pierce RIPA Lysis and Extraction buffer (Thermo Scientific Cat No: 89900), centrifuged at 10,000 g for 15 minutes at 4° C. to remove insoluble material, and the soluble fraction quantified by Pierce BCA assay (Thermo Scientific Cat No: 23225). Lactate dehydrogenase activity was quantified using a Sigma Aldrich Lactate Dehydrogenase Activity Assay Kit (Catalog No: MAK066). Briefly, 10 μg of sample was loaded per well in a 96 well plate along with 20 uM of Pelage compounds and pre-incubated at 37° C. for 30 minutes before addition of Ldh assay master mix. Using a Biotek Synergy HTX multi-mode reader, the plate was incubated at 37° C. and absorbance measurements at 450 nm (A450) were taken every 3 minutes for 30 minutes. The LDH activity of each sample was quantified by calculating the AA450 over time.

effect on LDH activity after pretreatment with a carboxylesterase inhibitor (benzil): no effect
Compound: N#C/C(=C\c1cn(-c2ccccc2)c2ccccc12)C(=O)O [UK5099]
